The data set can be described thus: physchem.

Structures are written as SMILES.

Description: Co., Ltd. In a case where the compound β was a nitrogen-containing aromatic compound, the pKa of the compound β in a ground state is intended to be a pKa of a conjugate acid of the compound β.
0.1 g of the compound β was dissolved in 20 ml of methanol, and 20 ml of ultrapure water was added thereto. This mixture was titrated using a 0.1 N-HCL aqueous solution, and the pH at ½ of the titration amount required up to the equivalence point was defined as the pKa (pKa of the compound β in a ground state).

As usually defined, the pKa is the negative logarithm of the acid dissociation constant. The low end stands for a stronger acid or weaker base, the high end for a weaker acid or stronger base. In the case of `Nc1ccncc1` [Example B13, 4-aminopyridine], the pKa is 9.2.

The values above are taken from US20230038201A1, “TRANSFER FILM, PHOTOSENSITIVE MATERIAL, PATTERN FORMING METHOD, MANUFACTURING METHOD OF CIRCUIT BOARD, AND MANUFACTURING METHOD OF TOUCH PANEL” (FUJIFILM Corporation, priority 2020, published 2023).
